System: human microvascular endothelial cells (HMEC)
Test: Internalization into HMEC, temperature effect and control experiments (confocal microscopy)
Format: cell-based
Conditions: 10 uM, 60 min, 37° C.
Experimental: The human microvascular endothelial cells (HMEC) cells were incubated with conjugates (10 uM) for 2.5 min at 4° C. or at 37° C.
The HMEC cells were incubated with conjugates (1 uM) for 30 min at 4° C. or at 37° C.
(b) The HMEC cells were incubated with Boc-protected guanidinylated FD-2 (10 uM) for 60 min at 37° C.
Internalization of FD-1 and FD-2 in mammalian cells was assessed using two different cell lines and a previously described method [Futaki, S.; Nakase, I.; Suzuki, T.; Youjun, Y.; Sugiura, Y. Biochemistry 2002, 41, 7925.] with NIH-3T3 fibroblasts and HMEC (human microvascular endothelial cells) and a Zeiss LSM 510 confocal microscope. […] [Futaki, S.; Nakase, I.; Suzuki, T.; Youjun, Y.; Sugiura, Y. Biochemistry 2002, 41, 7925; Vivès, E.; Brodin, P.; Lebleu, B. J. Biol. Chem. 1997, 272, 16010.] Furthermore, the extent of internalization increased in an incubation time-dependent manner, and it was observed that after just 10 min, the fluorescence intensity of cells treated with FD-2 was near saturation. […] L. Org. Lett. 2005, 7, 4815.] but also regulate the subcellular localization of the molecule and its putative cargo. […] Therefore, the dendrimer with a hexyl spacer crosses the cell membrane faster than the molecule with an ethyl chain. On the other hand, the localization patterns can also be controlled by the length of the spacer. […]

Substance: fluorescein isothiocyanate [free FITC]
- fluorescence of cells in control experiments: no
